For this assay, the target named is T1, TRPV3 mutant W692C (Homo sapiens, UniProt Q8NET8, W692C).
T1 construct: YFP or GFP; expressed in transfected cells; host or cells: HEK293T
T1 sequence (Q8NET8 1-790 W692C): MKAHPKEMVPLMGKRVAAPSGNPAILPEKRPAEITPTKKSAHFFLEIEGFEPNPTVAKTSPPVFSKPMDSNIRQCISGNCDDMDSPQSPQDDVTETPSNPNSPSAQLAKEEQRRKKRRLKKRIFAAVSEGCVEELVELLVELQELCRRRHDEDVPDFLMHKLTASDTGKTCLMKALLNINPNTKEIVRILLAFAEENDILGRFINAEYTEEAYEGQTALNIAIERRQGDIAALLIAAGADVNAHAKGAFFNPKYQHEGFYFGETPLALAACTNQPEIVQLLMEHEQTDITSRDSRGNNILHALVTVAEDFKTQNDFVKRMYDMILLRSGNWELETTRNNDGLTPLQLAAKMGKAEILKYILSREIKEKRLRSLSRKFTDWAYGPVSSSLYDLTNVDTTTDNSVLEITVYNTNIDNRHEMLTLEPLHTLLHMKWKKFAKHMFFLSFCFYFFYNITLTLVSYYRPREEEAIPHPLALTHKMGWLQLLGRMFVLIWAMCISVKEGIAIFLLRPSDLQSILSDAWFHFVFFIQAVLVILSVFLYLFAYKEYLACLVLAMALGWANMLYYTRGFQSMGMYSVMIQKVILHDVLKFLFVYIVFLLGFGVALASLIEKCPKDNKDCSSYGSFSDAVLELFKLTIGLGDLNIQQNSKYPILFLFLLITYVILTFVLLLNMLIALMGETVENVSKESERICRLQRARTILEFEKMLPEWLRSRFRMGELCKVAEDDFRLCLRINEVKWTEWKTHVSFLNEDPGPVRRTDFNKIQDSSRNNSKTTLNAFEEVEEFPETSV
Kind of assay: Whole-cell recording of gain-of-function TRPV3 mutant W692C. In kind it is cell-based. Conditions: concentration gradients of HCQ, ± 80 mV. The procedure:
To test the effect of HCQ on carvacrol-induced skin inflammation, we evaluated the inhibitory effect of HCQ on TRPV3 activated by carvacrol in vitro.
Figure 5 HCQ can attenuate mice back skin lesions induced by TRPV3 agonist carvacrol.A, representative whole-cell recording of TRPV3 in response to 1 mM carvacrol (Car), the mixture of 1 mM Car, and concentration gradients of HCQ with the holding potential of ± 80 mV. B, concentration–response curve of Car and HCQ on TRPV3 channels fitted by Hill equation. Data were shown as mean ± SEM (n = 6 cells). C, representative whole-cell recording of W692C mutants in response to concentration gradients of HCQ with the holding potential of ± 80 mV. D, concentration–response curve of HCQ on W692C mutants fitted by Hill equation. Data were shown as mean ± SEM (n = 4 cells). E, paradigm of generation of AD-like mice model induced by Car. […] A 200 μl volume of drug was applied to each mouse. Green lines indicate the thickness of the epidermis. Upper panel, the scale bar represents 2 cm; bottom panel, scale bar represents 100 μm. G–I, quantification of thickness (G), erythema (H), dryness, and scaling (I), (n = 6 mice, mean ± SEM), thickness: F (3, 20) = 20.68, p < 0.0001; erythema: F (3, 20) = 55.10, p < 0.0001; dryness and scaling: F (3, 20) = 39.61, p < 0.0001 by one-way ANOVA followed using Tukey's post hoc test. […]

The source of these data is article PMC11460631, “Inhibition of transient receptor potential vanilloid 3 channels by antimalarial hydroxychloroquine alleviates TRPV3-dependent dermatitis” (The Journal of Biological Chemistry, 2024).

With `CCN(CCO)CCCC(C)Nc1ccnc2cc(Cl)ccc12` (stereo not shown) [HCQ, hydroxychloroquine], the “effect on activity of gain-of-function TRPV3 mutant W692C” value is on record as “inhibited”.
